68 molecules from the pKa sets of Baltruschat and Czodrowski (2020) can be followed below.

Each structure is given as a SMILES string.

The term pKa denotes the pH at which an ionisable group is half protonated.

Where the note is “acidic group”, `CC(=O)NC(Cc1c[nH]c[nH+]1)C(=O)O` (stereo unspecified) yielded a pKa of 2.94. In the case of `Cc1ccc(S(=O)(=O)NCCC(=[NH2+])N(C)C)cc1`, the pKa (acidic group) came out at 9.84. Still for that read-out and setting: next, `Cc1nc2c(n1C)C(=O)c1[nH]c(=O)[nH]c(=O)c1C2=O`: 5.82. `Oc1ccc2ccccc2[nH+]1`: the pKa (acidic group) came to 0.31. Under “basic group”, `COC(=O)c1cccnc1` returned a pKa of 3.23. `O=C(O)C[NH+](CCNS(=O)(=O)c1ccccc1)CC(=O)O` showed a pKa (acidic group) of 2.1. `CCCCCCCCCCN(CCO)CC(C)O` (stereo unspecified) showed a pKa (basic group) of 7.5. On to `C[n+]1cccc2cccc(O)c21`, for which, for the setting “acidic group”, the pKa was 6.81.

Take `NC[C@H]1CCCC[C@@H]1O`: the pKa (basic group) worked out at 10.2.

Regarding `Fc1ccc(NC(=S)c2cccc(Br)c2)cc1`, where the note is “acidic group”, the pKa amounted to 10.3.

Take `Cc1ccc(S(=O)(=O)N[C@@H](CC(N)=O)C(=O)[O-])cc1`: the pKa (acidic group) amounted to 11.4. As for `Nc1c2[nH]cnc2nc[n+]1[O-]`, the pKa (acidic group) was found to be 9 and the pKa (basic group) was determined as 2.6. For the molecule `CN1CCCC1`, where the note is “basic group”, the pKa came out at 10.6. The molecule `O=c1ccc2ccccc2cc1O` gave a pKa (acidic group) of 10.

With `C/C=C/CCC(=O)O`, under “acidic group”, the pKa was 4.72. In the case of `C[Si](C)(CN)O[Si](C)(C)CN`, under “basic group”, the pKa came to 10.3. For the molecule `CCc1nnc(CC)n1N`, the pKa (acidic group) was found to be 9.77. For `COc1cc(N)c(C#N)c(N)n1`, where the note is “basic group”, the pKa is 4.17. As for `COc1nc2ccccc2nc1OC`, under “basic group”, the pKa was -1.15. Where the note is “basic group”, `[NH3+]C(CC(=O)[O-])c1ccccn1` (stereo unspecified) gave a pKa of 2.94. As for `CCC1CN1` (stereo unspecified), the pKa (basic group) worked out at 5.69.

In turn, `Nc1cc(N)c2ccccc2n1` registered a pKa (basic group) of 9.45. The molecule `c1ccc2c(c1)CCNC2` yielded a pKa (basic group) of 9.48.

As to `O=C(O)C1CCCOC1` (stereo unspecified), the pKa (acidic group) was determined as 4.25. `CCCC(=O)SCCN(C)C`: for the setting “basic group”, the pKa was found to be 8.32. Turning to `Cn1nnc(CC(=O)O)n1`, the pKa (acidic group) was 3.44. For the setting “basic group”, `C1CCC2CNCCC2C1` (stereo unspecified) had a pKa of 10.9.

In the case of `OCc1ccc(-c2nccc3c2[nH]c2ccccc23)o1`, the pKa (basic group) was found to be 5.7. The molecule `O=C1C(O)=C(Cc2ccccc2)C(=O)c2ccccc21` returned a pKa (acidic group) of 4.9.

Turning to `CC(C)=C=CC(C)(C)C(=O)O`, where the note is “acidic group”, the pKa was found to be 4.7. For `[NH3+]CCCc1cccnc1`, the pKa (basic group) turned out to be 5.19. `C[C@H](CCCNCc1ccccc1)[C@H]1CC[C@H]2[C@@H]3CC[C@@H]4C[C@H](O)CC[C@]4(C)[C@H]3C[C@H](O)[C@]12C` returned a pKa (basic group) of 9.07.

`CCCN(CC)C(CC)C(=O)Nc1c(C)cccc1C` (stereo unspecified): the pKa (basic group) amounted to 6.62.

Under “basic group”, `Cc1ccc2nc(C)c3c(c2c1)OC(C)C3C` (stereo unspecified) showed a pKa of 7.65. Still for that read-out and setting: next, `CCN(CC)Cc1cc([N+](=O)[O-])ccc1[O-]`: 11.

Under “acidic group”, `Cc1cnc(C(=O)O)s1` returned a pKa of 3.03. `CCCCCCN(CC(C)O)CC(C)O` (stereo unspecified): the pKa (basic group) is 8.5. Take `C=C(/C=C(/C)O)C(C)(C)C`: the pKa (acidic group) is 11. Still for that read-out and setting: to `O=C(O)C[Se]c1ccccc1[N+](=O)[O-]` belongs 3.45.

Turning to `O=CC(c1ccccc1)c1ccccc1`, the pKa reads like this: (acidic group) 9.39; (basic group) 9.42. On to `Cc1ccc(NCCS)cc1`, for which the pKa (basic group) was 5.08. In the case of `CC(=O)CC(=O)C(F)(F)F`, the pKa (acidic group) amounted to 6.09. Same read-out and setting: to `CC(C)(C)C(=O)C(=O)O` belongs 2.3. Consider `C1CCCNCC1`, for which, for the setting “basic group”, the pKa was found to be 11. On to `O=C1Cc2c1ccc(O)c2[N+](=O)[O-]`, for which the pKa (acidic group) was found to be 3.98. On the same count and under the same terms, next, `CCO/C([O-])=N/c1ncnc2nc[nH]c12`: 12.2. Consider `c1ccc(CNC(CC2CCCCC2)CC2CCCCC2)cc1`, for which the pKa (basic group) turned out to be 7.7.

In the case of `NCCc1ccc([O-])cc1`, the pKa (basic group) is 10.4. With `O=C(O)c1ccc(Oc2ccccc2)cc1`, the pKa (acidic group) came to 4.52. Turning to `COc1ccc(/N=N/c2ccncc2)cc1`, the pKa (basic group) is 4.53. In the case of `CO[C@H]1CC=C2CCN3CC[C@H](CO)/C(=C\CO)[C@]23C1`, where the note is “basic group”, the pKa stood at 8.42. In the case of `O=S(=O)(NCc1ccccc1)c1ccc(Br)cc1`, the pKa (acidic group) is 10.7. On to `C[C@@H]1N[C@H](CCCCCCCC(=O)[O-])CC[C@@H]1O`, for which the pKa (basic group) amounted to 10.4.

As for `Cn1ccc2ccccc2c1=O`, the pKa (basic group) is -1.8. On the same count and under the same terms, to `CN(C)C1CC(C)(C)[NH2+]C(C)(C)C1` belongs 7.67. `O=C(O)c1ccc[se]1` registered a pKa (acidic group) of 3.43. As for `CC(C)[NH2+]CCc1ccc(O)cc1`, the pKa (acidic group) came out at 9.59. Where the note is “acidic group”, `O=C1NC(=O)c2c1cccc2[N+](=O)[O-]` came in with a pKa of 8.8. For `CC(C)(C)CC(C)(C)N`, the pKa (basic group) was determined as 10.8.

Where the note is “basic group”, `CN(C)CCC/N=C(\c1ccccc1)c1cccc2ccccc12` registered a pKa of 9. Molecule `NC(=O)CCCCCCCCC(=O)NO` registered a pKa (acidic group) of 9.49.

`OCCC[C@@H]1CC[C@@H]2CCCN12` came in with a pKa (basic group) of 11.5.

Consider `Nc1cccc[n+]1O`, for which, for the setting “acidic group”, the pKa was 2.67. For the molecule `[NH3+]C(CC(=O)O)C(=O)NC(CC(=O)O)C(=O)O` (stereo unspecified), for the setting “acidic group”, the pKa was 2.7. The same measure, in the same setting: to `Cc1ccc(C(=O)NS(=O)(=O)c2ccc(N)cc2)cc1C` belongs 4.66. With `NCCCCNCCCN`, the pKa (basic group) was found to be 10.6.

Where the note is “acidic group”, `CCC1(CC)C(=O)NC(=O)N(C(=O)c2ccccc2OC)C1=O` had a pKa of 6.54. For the molecule `OCc1nc2ccccc2[nH]1`, the pKa was 12.1 (acidic group) and 4.82 (basic group).
